Measurements as given in ChEMBL document CHEMBL3217637, “Temocene: the porphycene analogue of temoporfin (Foscan)” (Medchemcomm, 2011).
Calls of active or inactive are those of the source. The rule behind the calls is not given here.

Columns and labels:
[1] = Photostability of the compound in aerated acetone under irradiation at 532 nm laser pulses; type: physicochemical; design: dose or concentration left out as unconfirmed
[2] = system: HeLa; experiment: Cytotoxicity against human HeLa cells assessed as decrease in cell viability under dark condition after 18 hrs by MTT assay; type: cell-based
[3] = system: HeLa; experiment: Phototoxicity against human HeLa cells assessed as decrease in cell viability at > 5 uM preincubated for 18 hrs followed by 3.5 J/cm'2 of photoirradiation measured after 24 hrs by MTT assay; type: functional, cell-based
[4] = Cellular uptake in mitochondria of human HeLa cells under prolonged irradiation at 365 nm up to 10 uM after 18 hrs by mitotracker green staining-based fluorescence microscopic analysis; type: ADME
[5] = Cellular uptake in mitochondria of human HeLa cells under ultraviolet irradiation at 365 nm at 1 to 10 uM after 18 hrs by mitotracker green staining-based fluorescence microscopic analysis; type: ADME
[6] = system: HeLa; experiment: Phototoxicity against human HeLa cells assessed as decrease in cell viability at < 5 uM preincubated for 18 hrs followed by > 3.5 J/cm'2 of photoirradiation measured after 24 hrs by MTT assay; type: functional, cell-based
[7] = Cellular uptake in cytoplasm of human HeLa cells under ultraviolet irradiation at 365 nm at 1 to 10 uM after 18 hrs by mitotracker green staining-based fluorescence microscopic analysis; type: ADME, cell-based
[8] = system: HeLa; experiment: Cellular uptake in human HeLa cells under ultraviolet irradiation at 365 nm at 0.5 uM after 18 hrs by mitotracker green staining-based fluorescence microscopic analysis; type: ADME, cell-based
[9] = Cellular uptake in cytoplasm of human HeLa cells under prolonged irradiation at 365 nm up to 10 uM after 18 hrs by mitotracker green staining-based fluorescence microscopic analysis; type: ADME, cell-based

SMILES	Stability [1]	Activity [2]	Activity [3]	Drug uptake [4]	Drug uptake [5]	Activity [6]	Drug uptake [7]	Drug uptake [8]	Drug uptake [9]
Oc1cccc(-c2c3nc(c(-c4cccc(O)c4)c4ccc([nH]4)c(-c4cccc(O)c4)c4nc(c(-c5cccc(O)c5)c5ccc2[nH]5)CC4)C=C3)c1 [TEMOPORFIN]	Stable	Toxic							
Oc1cccc(C2=Cc3nc2ccc2[nH]c(cc2-c2cccc(O)c2)c2nc(ccc4[nH]c3cc4-c3cccc(O)c3)C(c3cccc(O)c3)=C2)c1	Stable	Non-toxic	Active	Active	Active	Active	Active	Not Active	Active
